Test results from ChEMBL document CHEMBL1201862, “PubChem BioAssay data set” (2004).
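48-hour exposure; five concentrations; linearly interpolated endpoints. At the GI50, growth is halved.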 Activity calls are given as the source filed them. Rule as the data show it: active = GI50 up to about 1.1 µM and inactive = higher.

Experiments:
Assay in all cases: NCI tumour cell line growth inhibition, 48 h
K562 = test system: K562
UACC-62 = test system: UACC-62
ACHN = test system: ACHN
IGROV-1 = test system: IGROV-1
SW-620 = test system: SW-620
HCC 2998 = test system: HCC 2998
OVCAR-8 = test system: OVCAR-8
U-251 = test system: U-251
NCI-H522 = test system: NCI-H522
786-0 = test system: 786-0
TK-10 = test system: TK-10
COLO 205 = test system: COLO 205
Malme-3M = test system: Malme-3M
SK-MEL-2 = test system: SK-MEL-2
SK-OV-3 = test system: SK-OV-3
A549 = test system: A549
HOP-62 = test system: HOP-62
SF-295 = test system: SF-295

Measured: GI50

COc1c(OC2OC(CO)C(O)C(O)C2O)cc2c(c1OC)-c1ccc(OC)c(=O)cc1[C@@H](NC(C)=O)CC2 (stereo not given in full)
inactive: K562 52.1 µM | UACC-62 51.5 µM | ACHN > 100 µM | IGROV-1 83 µM | SW-620 > 81.8 µM | HCC 2998 > 93.3 µM | OVCAR-8 > 100 µM | U-251 > 100 µM | NCI-H522 43.8 µM | 786-0 > 100 µM | TK-10 > 100 µM | COLO 205 > 100 µM | Malme-3M 61.5 µM | SK-MEL-2 35.1 µM | SK-OV-3 > 100 µM | A549 > 100 µM | HOP-62 > 100 µM | SF-295 > 89.7 µM

O=[N+]([O-])c1cccc(S(=O)(=O)N/N=C/c2cc(I)cc([N+](=O)[O-])c2O)c1
inactive: K562 29.8 µM | UACC-62 22 µM | ACHN 31.5 µM | IGROV-1 36.3 µM | SW-620 22 µM | HCC 2998 57 µM | OVCAR-8 25.6 µM | U-251 20.9 µM | NCI-H522 18.8 µM | 786-0 31.8 µM | TK-10 29.2 µM | COLO 205 16.5 µM | Malme-3M 25.9 µM | SK-MEL-2 19.7 µM | SK-OV-3 26.5 µM | A549 > 100 µM | HOP-62 26.7 µM | SF-295 32.7 µM

CN(C(=O)C12C3C4C5C3C1(C(=O)O)C5C42)C(C)(C)C (stereo not given)
inactive: K562 44.6 µM | UACC-62 > 100 µM | ACHN > 100 µM | IGROV-1 > 100 µM | SW-620 23.9 µM | HCC 2998 > 100 µM | OVCAR-8 > 100 µM | U-251 > 100 µM | NCI-H522 > 100 µM | 786-0 > 100 µM | TK-10 > 100 µM | COLO 205 28 µM | Malme-3M > 100 µM | SK-MEL-2 > 100 µM | SK-OV-3 > 100 µM | A549 42.2 µM | HOP-62 > 100 µM | SF-295 > 100 µM

CN(C)/N=N/c1ccc(S(N)(=O)=O)cc1
inactive: K562 > 100 µM | UACC-62 > 100 µM | ACHN > 100 µM | IGROV-1 > 100 µM | SW-620 > 100 µM | HCC 2998 > 100 µM | OVCAR-8 > 100 µM | U-251 > 100 µM | NCI-H522 > 100 µM | 786-0 > 100 µM | TK-10 > 100 µM | COLO 205 > 100 µM | Malme-3M > 100 µM | SK-MEL-2 > 100 µM | SK-OV-3 > 100 µM | A549 > 100 µM | HOP-62 > 100 µM | SF-295 > 100 µM

Cc1ccccc1C(C#N)/C(=N/NC(=O)c1cc2ccccc2cc1O)C(=O)Nc1cccc(Cl)c1 (stereo not given)
inactive: K562 9.64 µM | UACC-62 4.27 µM | ACHN 16.4 µM | IGROV-1 9.93 µM | SW-620 7.85 µM | HCC 2998 28.8 µM | OVCAR-8 8.85 µM | U-251 25.6 µM | NCI-H522 20.9 µM | 786-0 7.85 µM | TK-10 45.7 µM | COLO 205 24.4 µM | Malme-3M 30.8 µM | SK-MEL-2 22.5 µM | SK-OV-3 41.8 µM | A549 18 µM | HOP-62 27.5 µM | SF-295 21.1 µM
